In brackets after ≈: the same amount, converted by molar mass. Starred links: 1 amine or outer side, 2 acyl side, 3 side chain; linkers in the order of their positions; H or OH if unused. Non-standard residues stand in square brackets, D forms with d. Residues, ends and D or L forms follow the SMILES beside them. Ile(ψThz) = CC[C@H](C)[C@H](N[*:1])c1nc(C(=O)[*:2])cs1; LeuThz(4-CO) = CC(C)C[C@H](N[*:1])c1nc(C(=O)[*:2])cs1; ValThz = CC(C)[C@H](N[*:1])c1nc(C(=O)[*:2])cs1; NMeF = CN[C@@H](Cc1ccccc1)C(=O)O; NMeI = CC[C@H](C)[C@H](NC)C(=O)O; Tle = CC(C)(C)[C@H](N)C(=O)O; NMeA = CN[C@@H](C)C(=O)O
Experiments:
[1] = Kinetic solubility of the compound in PBS at pH 7.4
[2] = Apparent permeability from apical to basolateral side in human Caco2 cells at 10 uM after 2 hrs by LC-MS/MS analysis; settings: Caco-2
physchem = settings: PBS
[3] = Retention time of the compound in isocratic acetonitrile/water by HPLC analysis; settings: buffer
[4] = Permeability of the compound at pH 7.4 at 10 uM after 10 hrs by LC-MS based PAMPA

SMILES	solubility kinetic [1]	Papp A→B at 2 h, 10 µM [2]	solubility thermodynamic at 48 h (physchem)	Retention_time [3]	Papp at 10 h, 10 µM [4]
CC[C@H](C)[C@@H]1NC(=O)[C@@H]2CCCN2C(=O)[C@H](Cc2ccccc2)NC(=O)[C@H](C)NC(=O)c2csc(n2)[C@H](CC(C)C)NC(=O)[C@@H]2CCCN2C1=O (cyclo(AFPIP[LeuThz(4-CO)]))	182 µM (≈ 131 µg/mL)	1.3 ×10⁻⁶ cm/s	35 µM (≈ 25.3 µg/mL)	2.87 min	5.6 ×10⁻⁶ cm/s
CC[C@H](C)[C@@H]1NC(=O)[C@@H]2CCCN2C(=O)[C@H](CC(C)C)NC(=O)[C@@H]2CCCN2C(=O)[C@H](Cc2ccccc2)NC(=O)[C@H](C)NC(=O)c2csc1n2 (cyclo(AFPLP[Ile(ψThz)]))	133 µM (≈ 96 µg/mL)	0.2 ×10⁻⁶ cm/s	122 µM (≈ 88.1 µg/mL)	2.19 min	5.3 ×10⁻⁶ cm/s
CC[C@H](C)[C@@H]1NC(=O)[C@@H]2CCCN2C(=O)[C@H]([C@@H](C)CC)N(C)C(=O)[C@@H]2CCCN2C(=O)[C@H](Cc2ccccc2)NC(=O)[C@H](C)NC(=O)c2csc1n2 (cyclo(AFP[NMeI]P[Ile(ψThz)]))	–	0.4 ×10⁻⁶ cm/s	–	1.79 min	1.3 ×10⁻⁶ cm/s
CC[C@H](C)[C@@H]1NC(=O)[C@@H]2CCCN2C(=O)[C@H](Cc2ccccc2)N(C)C(=O)[C@H](C)NC(=O)c2csc(n2)[C@H]([C@@H](C)CC)NC(=O)[C@@H]2CCCN2C1=O (cyclo(A[NMeF]PIP[Ile(ψThz)]))	105 µM (≈ 77.3 µg/mL)	7.4 ×10⁻⁶ cm/s	172 µM (≈ 127 µg/mL)	3.03 min	11 ×10⁻⁶ cm/s
CC[C@H](C)[C@@H]1NC(=O)[C@@H]2CCCN2C(=O)[C@H](C(C)C)NC(=O)[C@@H]2CCCN2C(=O)[C@H](Cc2ccccc2)N(C)C(=O)[C@H](C)NC(=O)c2csc1n2 (cyclo(A[NMeF]PVP[Ile(ψThz)]))	133 µM (≈ 96 µg/mL)	6.8 ×10⁻⁶ cm/s	296 µM (≈ 214 µg/mL)	2.24 min	9.1 ×10⁻⁶ cm/s
CC[C@H](C)[C@@H]1NC(=O)[C@@H]2CCCN2C(=O)[C@H](Cc2ccccc2)NC(=O)[C@H](C)N(C)C(=O)c2csc(n2)[C@H]([C@@H](C)CC)NC(=O)[C@@H]2CCCN2C1=O (cyclo(FPIP[Ile(ψThz)][NMeA]))	333 µM (≈ 245 µg/mL)	0.2 ×10⁻⁶ cm/s	801 µM (≈ 589 µg/mL)	1.48 min	0.5 ×10⁻⁶ cm/s
CC[C@H](C)[C@@H]1NC(=O)[C@@H]2CCCN2C(=O)[C@H](Cc2ccccc2)N(C)C(=O)[C@H](CC(C)C)NC(=O)c2csc(n2)[C@H]([C@@H](C)CC)NC(=O)[C@@H]2CCCN2C1=O (cyclo(IP[Ile(ψThz)]L[NMeF]P))	133 µM (≈ 103 µg/mL)	19.3 ×10⁻⁶ cm/s	111 µM (≈ 86.4 µg/mL)	5.06 min	17.2 ×10⁻⁶ cm/s
CC[C@H](C)[C@@H]1NC(=O)[C@@H]2CCCN2C(=O)[C@H](Cc2ccccc2)N(C)C(=O)[C@H](C(C)(C)C)NC(=O)c2csc(n2)[C@H]([C@@H](C)CC)NC(=O)[C@@H]2CCCN2C1=O (cyclo(IP[Ile(ψThz)][Tle][NMeF]P))	–	–	–	10.94 min	–
CC[C@H](C)[C@@H]1NC(=O)c2csc(n2)[C@H]([C@@H](C)CC)NC(=O)[C@@H]2CCCN2C(=O)[C@H]([C@@H](C)CC)NC(=O)[C@@H]2CCCN2C(=O)[C@H](Cc2ccccc2)N(C)C1=O (cyclo(I[NMeF]PIP[Ile(ψThz)]))	21 µM (≈ 16.3 µg/mL)	21.2 ×10⁻⁶ cm/s	12 µM (≈ 9.34 µg/mL)	10 min	1.5 ×10⁻⁶ cm/s

Second part, the molecule after the results:

solubility kinetic [1]	Papp A→B at 2 h, 10 µM [2]	solubility thermodynamic at 48 h (physchem)	Retention_time [3]	Papp at 10 h, 10 µM [4]	SMILES
147 µM (≈ 106 µg/mL)	1.3 ×10⁻⁶ cm/s	107 µM (≈ 77.2 µg/mL)	2.77 min	5.3 ×10⁻⁶ cm/s	CC[C@H](C)[C@@H]1NC(=O)[C@@H]2CCCN2C(=O)[C@H](Cc2ccccc2)NC(=O)[C@H](C)NC(=O)c2csc(n2)[C@H]([C@@H](C)CC)NC(=O)[C@@H]2CCCN2C1=O (cyclo(AFPIP[Ile(ψThz)]))
285 µM (≈ 202 µg/mL)	3.7 ×10⁻⁶ cm/s	205 µM (≈ 145 µg/mL)	2.03 min	4.8 ×10⁻⁶ cm/s	CC[C@H](C)[C@@H]1NC(=O)[C@@H]2CCCN2C(=O)[C@H](Cc2ccccc2)NC(=O)[C@H](C)NC(=O)c2csc(n2)[C@H](C(C)C)NC(=O)[C@@H]2CCCN2C1=O (cyclo(AFPIP[ValThz]))
285 µM (≈ 202 µg/mL)	0.4 ×10⁻⁶ cm/s	–	1.02 min	0.2 ×10⁻⁶ cm/s	CC[C@H](C)[C@@H]1NC(=O)[C@@H]2CCCN2C(=O)[C@H]([C@@H](C)O)NC(=O)[C@@H]2CCCN2C(=O)[C@H](Cc2ccccc2)NC(=O)[C@H](C)NC(=O)c2csc1n2 (cyclo(AFPTP[Ile(ψThz)]))
182 µM (≈ 129 µg/mL)	0.3 ×10⁻⁶ cm/s	236 µM (≈ 167 µg/mL)	1.97 min	4.9 ×10⁻⁶ cm/s	CC[C@H](C)[C@@H]1NC(=O)[C@@H]2CCCN2C(=O)[C@H](C(C)C)NC(=O)[C@@H]2CCCN2C(=O)[C@H](Cc2ccccc2)NC(=O)[C@H](C)NC(=O)c2csc1n2 (cyclo(AFPVP[Ile(ψThz)]))
39 µM (≈ 29.8 µg/mL)	9.6 ×10⁻⁶ cm/s	6 µM (≈ 4.58 µg/mL)	7.86 min	6.1 ×10⁻⁶ cm/s	CC[C@H](C)[C@@H]1NC(=O)c2csc(n2)[C@H]([C@@H](C)CC)NC(=O)[C@@H]2CCCN2C(=O)[C@H]([C@@H](C)CC)NC(=O)[C@@H]2CCCN2C(=O)[C@H](Cc2ccccc2)NC1=O (cyclo(FPIP[Ile(ψThz)]I))
39 µM (≈ 29.8 µg/mL)	10.9 ×10⁻⁶ cm/s	10 µM (≈ 7.64 µg/mL)	9.13 min	4.7 ×10⁻⁶ cm/s	CC[C@H](C)[C@@H]1NC(=O)[C@@H]2CCCN2C(=O)[C@H](Cc2ccccc2)NC(=O)[C@H](CC(C)C)NC(=O)c2csc(n2)[C@H]([C@@H](C)CC)NC(=O)[C@@H]2CCCN2C1=O (cyclo(FPIP[Ile(ψThz)]L))
–	–	–	8.72 min	–	CC[C@H](C)[C@@H]1NC(=O)[C@@H]2CCCN2C(=O)[C@H](Cc2ccccc2)NC(=O)[C@H](C(C)(C)C)NC(=O)c2csc(n2)[C@H]([C@@H](C)CC)NC(=O)[C@@H]2CCCN2C1=O (cyclo(FPIP[Ile(ψThz)][Tle]))
105 µM (≈ 75.8 µg/mL)	2.2 ×10⁻⁶ cm/s	148 µM (≈ 107 µg/mL)	2.81 min	4.7 ×10⁻⁶ cm/s	CC(C)[C@@H]1NC(=O)c2csc(n2)[C@H](C(C)C)NC(=O)[C@@H]2CCCN2C(=O)[C@H](C(C)C)NC(=O)[C@@H]2CCCN2C(=O)[C@H](Cc2ccccc2)NC1=O (cyclo(FPVP[ValThz]V))

From ChEMBL document CHEMBL3616364, “Going Out on a Limb: Delineating The Effects of β-Branching, N-Methylation, and Side Chain Size on the Passive Permeability, Solubility, and Flexibility of Sanguinamide A Analogues” (J Med Chem, 2015)
